Laboratory results taken from US8962600B2, “Neuroprotective compounds and their use” (The Medical College of Wisconsin, Inc., priority 2009, dated 2015).

Experiments:
[1] = system: gp91phox; test: gp91phox expression in substantia nigra, Western blot and DAB immunostaining; format: in vivo, C57BL/6 mice
Description: (§1) For checking inflammatory and oxidative stress markers, mice were gavaged diapocynin (300 mg/kg dose) 1 day before MPTP treatment (pre-treatment) and continued for another 4 days of co-treatment with MPTP. In the sub-acute MPTP regimen, MPTP (25 mg/kg) was injected intraperitoneally once per day from day 2 to day 7. Control mice received saline at the same dosage.
(§2) Four days after MPTP treatment, mice were perfused with 4% paraformaldehyde (PFA) and post-fixed with PFA and 30% sucrose, respectively. Next, fixed brains were cut into 30 μm sections and kept in 30% sucrose-ethylene glycol solutions at −20° C. On the day of staining, sections were rinsed with phosphate-buffered saline (PBS) and incubated with different primary antibodies, including anti-IBA-1 (DAKO, Carpinteria, Calif.), anti-GFAP (Millipore, Billerica, Mass.), anti-iNOS (Santa Cruz Biotechnology, Santa Cruz, Calif.), anti-3NT (Millipore), anti-4HNE (R&D Systems, Minneapolis, Minn.) and anti-gp91phox (Santa Cruz Biotechnology) for overnight at 4° C. Appropriate secondary antibodies (Alexa Fluor 488, 594, or 555 from Invitrogen, Carlsbad, Calif.) were used followed by incubation with 10 μg/ml Hoechst 33342 for 5 min at room temperature to stain the nucleus. Sections were viewed under a Nikon inverted fluorescence microscope (model TE-2000U; Nikon, Tokyo, Japan). […]

[2] = system: 4-hydroxynonenol (4-HNE); test: 4-hydroxynonenol expression in substantia nigra, Western blot and immunostaining; format: in vivo, C57BL/6 mice
Description: as §1, §2

[3] = system: mouse primary microglia; test: LPS-induced iNOS activation (nitrite, Griess reagent) in primary microglia; format: cell-based; conditions: diapocynin 10 μM, 30 min pretreatment, LPS 24 hr
Description: Primary microglia were obtained from 1-2 day old C57/b16 mouse pups. Upon collection, whole brains were kept in ice-cold DMEM-F12 medium containing 10% FBS, 1× sodium pyruvate, 1× NEAAs, 100 units pen/strep, and Q. After collection, the brains were placed in 0.25% trypsin-EDTA and incubated at 37° C., with gentle shaking every 5-10 min. After 30 min, the trypsin was removed, and the brains are washed in warmed medium twice. After washing, medium was added to the brains, and the brains were homogenized using gentle pipetting, starting with a 25 ml pipette and moving to smaller pipette tips as the brains were broken up. When the brains were sufficiently homogenized to a single-cell suspension, they were filtered with a 70 μm nylon filter, which allowed microglia and astrocytes to be collected. The resultant cell suspension was plated in T-75 flasks and allowed to grow for 12-14 days at 37° C., 5% CO2. Microglia were collected using an Easy Sep Magnet (Stemcell Technologies, Vancouver, BC, Canada) (68-69) and plated on poly-D-lysine-coated plates and allowed to attach for 2-4 days before treatment.
Inducible nitric oxide synthase (iNOS or NOS2) activation was assessed by measuring nitrite levels using Griess reagent in a 96-well format (70-72). […] The plate was shaken on a plate shaker for 10 min before being read in a plate reader at 540 nm.

## COc1cc(C(C)=O)cc(-c2cc(C(C)=O)cc(OC)c2O)c1O [diapocynin]
[1]; diapocynin 300 mg/kg gavage, MPTP 25 mg/kg i.p., Western blot and DAB immunostaining
  MPTP-induced expression of gp91phox in substantia nigra: attenuated
[1]; double-labeling, mice treated with MPTP and diapocynin 300 mg/kg
  colocalization of gp91phox with IBA-1 positive cells: no colocalization
[2]; diapocynin 300 mg/kg gavage, MPTP 25 mg/kg i.p., Western blot and immunostaining
  MPTP-induced increase in expression of 4-HNE in substantia nigra: attenuated
[2]; double-label immunostaining, MPTP- and diapocynin-treated mice
  colocalized cells of TH and 4-HNE in substantia nigra: very few colocalized cells
[3]
  attenuating LPS-induced iNOS activation, compared with apocynin 100 μM: just as effective
